Where a SMILES comes first, the peptide text is derived from it. [ ]: non-standard residue; d: D form. The star is where a group is joined. X1 = Cc1ccc(Nc2ncc3c(n2)N(C)C(=O)N(c2cc(C(=O)*)ccc2C)C3)cn1; Aib = CC(C)(N)C(=O)O
Legend:
DSS-induced colitis mice = assay: DSS-induced colitis model; format: in vivo; conditions: 5 mg/kg, i.p., daily for 7 days, 4% DSS, day 7
Experimental: Male C57BL/6 mice (21 ± 2 g; 6 weeks) were obtained from Oriental Bio Inc. (Seongnam-si, Korea). All mice were bred under constant conditions (temperature: 22 ± 2 °C, humidity: 40–60%, light/dark cycle: 12 h). All animal experiments were conducted under the university guidelines of the ethical committee for Animal Care and Use of the Kyung Hee University (KHSASP-22–002).
Colitis in mice was induced by providing water containing 4% (w/v) DSS for 7 days. Mice were randomly divided into 5 groups (n = 6/group, Figure 8) as follows: control group treated with vehicle; DSS plus vehicle group exposed to 4% DSS and treated with vehicle; the other 3 groups consist of mice receiving 4% DSS was treated with 5-ASA (75 mg/kg/day, p.o.) as a positive control or 7a (1, 5 mg/kg/day, i.p.) daily for 7 days.
To calculate the severity of colitis, body weight, stool consistency, and occult/gross bleeding of all mice were assessed. DAI score was measured every day according to the following table (Table 5). The colon length was measured at end of the experiment.

ALK1/ACVRL1 = molecular target: T1, ALK1/ACVRL1 (Homo sapiens, UniProt P37023); assay: kinase selectivity profiling; format: biochemical; conditions: 10µM ATP, read-out: % inhibition (relative to DMSO)
T1 construct: purchased Reaction Biology Corp
Experimental: (§1) Full panel kinase profiling and kinase IC50 measurement were performed by using Reaction Biology Corp. (San Diego, USA).

ALK2/ACVR1 = molecular target: T2, ALK2/ACVR1 (Homo sapiens, UniProt Q04771); assay: kinase selectivity profiling; format: biochemical; conditions: 10µM ATP, read-out: % inhibition (relative to DMSO)
T2 construct: purchased Reaction Biology Corp
Experimental: as §1

Aurora A = molecular target: T3, Aurora A (Homo sapiens, UniProt O14965); assay: kinase selectivity profiling; format: biochemical; conditions: 10µM ATP, read-out: % inhibition (relative to DMSO)
T3 construct: purchased Reaction Biology Corp
Experimental: as §1

BRSK2 = molecular target: T4, BRSK2 (Homo sapiens, UniProt Q8IWQ3); assay: kinase selectivity profiling; format: biochemical; conditions: 10µM ATP, read-out: % inhibition (relative to DMSO)
T4 construct: purchased Reaction Biology Corp
Experimental: as §1

BTK = molecular target: T5, BTK (Homo sapiens, UniProt Q06187); assay: kinase selectivity profiling; format: biochemical; conditions: 10µM ATP, read-out: % inhibition (relative to DMSO)
T5 construct: purchased Reaction Biology Corp
Experimental: as §1

CAMK1a = molecular target: T6, CAMK1a (Homo sapiens, UniProt Q14012); assay: kinase selectivity profiling; format: biochemical; conditions: 10µM ATP, read-out: % inhibition (relative to DMSO)
T6 construct: purchased Reaction Biology Corp
Experimental: as §1

CDK2/cyclin O = molecular target: T7, CDK2/cyclin O (Homo sapiens, UniProt P24941); assay: kinase selectivity profiling; format: biochemical; conditions: 10µM ATP, read-out: % inhibition (relative to DMSO)
T7 construct: purchased Reaction Biology Corp
Experimental: as §1

CDK3/cyclin E2 = molecular target: T8, CDK3/cyclin E2 (Homo sapiens, UniProt Q00526); assay: kinase selectivity profiling; format: biochemical; conditions: 10µM ATP, read-out: % inhibition (relative to DMSO)
T8 construct: purchased Reaction Biology Corp
Experimental: as §1

CDK8/cyclin C = molecular target: T9, CDK8/cyclin C (Homo sapiens, UniProt P49336); assay: kinase selectivity profiling; format: biochemical; conditions: 10µM ATP, read-out: % inhibition (relative to DMSO)
T9 construct: purchased Reaction Biology Corp
Experimental: as §1

EPHA5 = molecular target: T10, EPHA5 (Homo sapiens, UniProt P54756); assay: kinase selectivity profiling; format: biochemical; conditions: 10µM ATP, read-out: % inhibition (relative to DMSO)
T10 construct: purchased Reaction Biology Corp
Experimental: as §1

EPHB1 = molecular target: T11, EPHB1 (Homo sapiens, UniProt P54762); assay: kinase selectivity profiling; format: biochemical; conditions: 10µM ATP, read-out: % inhibition (relative to DMSO)
T11 construct: purchased Reaction Biology Corp
Experimental: as §1

ERK1 = molecular target: T12, ERK1 (Homo sapiens, UniProt P27361); assay: kinase selectivity profiling; format: biochemical; conditions: 10µM ATP, read-out: % inhibition (relative to DMSO)
T12 construct: purchased Reaction Biology Corp
Experimental: as §1

ERN2/IRE2 = molecular target: T13, ERN2/IRE2 (Homo sapiens, UniProt Q76MJ5); assay: kinase selectivity profiling; format: biochemical; conditions: 10µM ATP, read-out: % inhibition (relative to DMSO)
T13 construct: purchased Reaction Biology Corp
Experimental: as §1

Fgr = molecular target: T14, Fgr (Homo sapiens, UniProt P09769); assay: kinase selectivity profiling; format: biochemical; conditions: 10µM ATP, read-out: % inhibition (relative to DMSO)
T14 construct: purchased Reaction Biology Corp
Experimental: as §1

GSK3a = molecular target: T15, GSK3a (Homo sapiens, UniProt P49840); assay: kinase selectivity profiling; format: biochemical; conditions: 10µM ATP, read-out: % inhibition (relative to DMSO)
T15 construct: purchased Reaction Biology Corp
Experimental: as §1

IRAK1 = molecular target: T16, IRAK1 (Homo sapiens, UniProt P51617); assay: kinase selectivity profiling; format: biochemical; conditions: 10µM ATP, read-out: % inhibition (relative to DMSO)
T16 construct: purchased Reaction Biology Corp
Experimental: as §1

MAPKAPK2 = molecular target: T17, MAPKAPK2 (Homo sapiens, UniProt P49137); assay: kinase selectivity profiling; format: biochemical; conditions: 10µM ATP, read-out: % inhibition (relative to DMSO)
T17 construct: purchased Reaction Biology Corp
Experimental: as §1

MNK1 = molecular target: T18, MNK1 (Homo sapiens, UniProt Q9BUB5); assay: kinase selectivity profiling; format: biochemical; conditions: 10µM ATP, read-out: % inhibition (relative to DMSO)
T18 construct: purchased Reaction Biology Corp
Experimental: as §1

MSK2/RPS6KA4 = molecular target: T19, MSK2/RPS6KA4 (Homo sapiens, UniProt O75676); assay: kinase selectivity profiling; format: biochemical; conditions: 10µM ATP, read-out: % inhibition (relative to DMSO)
T19 construct: purchased Reaction Biology Corp
Experimental: as §1

PIM1 = molecular target: T20, PIM1 (Homo sapiens, UniProt P11309); assay: kinase selectivity profiling; format: biochemical; conditions: 10µM ATP, read-out: % inhibition (relative to DMSO)
T20 construct: purchased Reaction Biology Corp
Experimental: as §1

PLK3 = molecular target: T21, PLK3 (Homo sapiens, UniProt Q9H4B4); assay: kinase selectivity profiling; format: biochemical; conditions: 10µM ATP, read-out: % inhibition (relative to DMSO)
T21 construct: purchased Reaction Biology Corp
Experimental: as §1

ROCK1 = molecular target: T22, ROCK1 (Homo sapiens, UniProt Q13464); assay: kinase selectivity profiling; format: biochemical; conditions: 10µM ATP, read-out: % inhibition (relative to DMSO)
T22 construct: purchased Reaction Biology Corp
Experimental: as §1

SLK/STK2 = molecular target: T23, SLK/STK2 (Homo sapiens, UniProt Q9H2G2); assay: kinase selectivity profiling; format: biochemical; conditions: 10µM ATP, read-out: % inhibition (relative to DMSO)
T23 construct: purchased Reaction Biology Corp
Experimental: as §1

SRMS = molecular target: T24, SRMS (Homo sapiens, UniProt Q9H3Y6); assay: kinase selectivity profiling; format: biochemical; conditions: 10µM ATP, read-out: % inhibition (relative to DMSO)
T24 construct: purchased Reaction Biology Corp
Experimental: as §1

STK16 = molecular target: T25, STK16 (Homo sapiens, UniProt O75716); assay: kinase selectivity profiling; format: biochemical; conditions: 10µM ATP, read-out: % inhibition (relative to DMSO)
T25 construct: purchased Reaction Biology Corp
Experimental: as §1

STK32C/YANK3 = molecular target: T26, STK32C/YANK3 (Homo sapiens, UniProt Q86UX6); assay: kinase selectivity profiling; format: biochemical; conditions: 10µM ATP, read-out: % inhibition (relative to DMSO)
T26 construct: purchased Reaction Biology Corp
Experimental: as §1

TEC = molecular target: T27, TEC (Homo sapiens, UniProt P42680); assay: kinase selectivity profiling; format: biochemical; conditions: 10µM ATP, read-out: % inhibition (relative to DMSO)
T27 construct: purchased Reaction Biology Corp
Experimental: as §1

TNK1 = molecular target: T28, TNK1 (Homo sapiens, UniProt Q13470); assay: kinase selectivity profiling; format: biochemical; conditions: 10µM ATP, read-out: % inhibition (relative to DMSO)
T28 construct: purchased Reaction Biology Corp
Experimental: as §1

TRKB = molecular target: T29, TRKB (Homo sapiens, UniProt Q16620); assay: kinase selectivity profiling; format: biochemical; conditions: 10µM ATP, read-out: % inhibition (relative to DMSO)
T29 construct: purchased Reaction Biology Corp
Experimental: as §1

TTBK1 = molecular target: T30, TTBK1 (Homo sapiens, UniProt Q5TCY1); assay: kinase selectivity profiling; format: biochemical; conditions: 10µM ATP, read-out: % inhibition (relative to DMSO)
T30 construct: purchased Reaction Biology Corp
Experimental: as §1

TTBK2 = molecular target: T31, TTBK2 (Homo sapiens, UniProt Q6IQ55); assay: kinase selectivity profiling; format: biochemical; conditions: 10µM ATP, read-out: % inhibition (relative to DMSO)
T31 construct: purchased Reaction Biology Corp
Experimental: as §1

VRK1 = molecular target: T32, VRK1 (Homo sapiens, UniProt Q99986); assay: kinase selectivity profiling; format: biochemical; conditions: 10µM ATP, read-out: % inhibition (relative to DMSO)
T32 construct: purchased Reaction Biology Corp
Experimental: as §1

WNK1 = molecular target: T33, WNK1 (Homo sapiens, UniProt Q9H4A3); assay: kinase selectivity profiling; format: biochemical; conditions: 10µM ATP, read-out: % inhibition (relative to DMSO)
T33 construct: purchased Reaction Biology Corp
Experimental: as §1

WNK3 = molecular target: T34, WNK3 (Homo sapiens, UniProt Q9BYP7); assay: kinase selectivity profiling; format: biochemical; conditions: 10µM ATP, read-out: % inhibition (relative to DMSO)
T34 construct: purchased Reaction Biology Corp
Experimental: as §1

p70S6K/RPS6KB1 = molecular target: T35, p70S6K/RPS6KB1 (Homo sapiens, UniProt P23443); assay: kinase selectivity profiling; format: biochemical; conditions: 10µM ATP, read-out: % inhibition (relative to DMSO)
T35 construct: purchased Reaction Biology Corp
Experimental: as §1

T22 sequence (Q13464 whole entry): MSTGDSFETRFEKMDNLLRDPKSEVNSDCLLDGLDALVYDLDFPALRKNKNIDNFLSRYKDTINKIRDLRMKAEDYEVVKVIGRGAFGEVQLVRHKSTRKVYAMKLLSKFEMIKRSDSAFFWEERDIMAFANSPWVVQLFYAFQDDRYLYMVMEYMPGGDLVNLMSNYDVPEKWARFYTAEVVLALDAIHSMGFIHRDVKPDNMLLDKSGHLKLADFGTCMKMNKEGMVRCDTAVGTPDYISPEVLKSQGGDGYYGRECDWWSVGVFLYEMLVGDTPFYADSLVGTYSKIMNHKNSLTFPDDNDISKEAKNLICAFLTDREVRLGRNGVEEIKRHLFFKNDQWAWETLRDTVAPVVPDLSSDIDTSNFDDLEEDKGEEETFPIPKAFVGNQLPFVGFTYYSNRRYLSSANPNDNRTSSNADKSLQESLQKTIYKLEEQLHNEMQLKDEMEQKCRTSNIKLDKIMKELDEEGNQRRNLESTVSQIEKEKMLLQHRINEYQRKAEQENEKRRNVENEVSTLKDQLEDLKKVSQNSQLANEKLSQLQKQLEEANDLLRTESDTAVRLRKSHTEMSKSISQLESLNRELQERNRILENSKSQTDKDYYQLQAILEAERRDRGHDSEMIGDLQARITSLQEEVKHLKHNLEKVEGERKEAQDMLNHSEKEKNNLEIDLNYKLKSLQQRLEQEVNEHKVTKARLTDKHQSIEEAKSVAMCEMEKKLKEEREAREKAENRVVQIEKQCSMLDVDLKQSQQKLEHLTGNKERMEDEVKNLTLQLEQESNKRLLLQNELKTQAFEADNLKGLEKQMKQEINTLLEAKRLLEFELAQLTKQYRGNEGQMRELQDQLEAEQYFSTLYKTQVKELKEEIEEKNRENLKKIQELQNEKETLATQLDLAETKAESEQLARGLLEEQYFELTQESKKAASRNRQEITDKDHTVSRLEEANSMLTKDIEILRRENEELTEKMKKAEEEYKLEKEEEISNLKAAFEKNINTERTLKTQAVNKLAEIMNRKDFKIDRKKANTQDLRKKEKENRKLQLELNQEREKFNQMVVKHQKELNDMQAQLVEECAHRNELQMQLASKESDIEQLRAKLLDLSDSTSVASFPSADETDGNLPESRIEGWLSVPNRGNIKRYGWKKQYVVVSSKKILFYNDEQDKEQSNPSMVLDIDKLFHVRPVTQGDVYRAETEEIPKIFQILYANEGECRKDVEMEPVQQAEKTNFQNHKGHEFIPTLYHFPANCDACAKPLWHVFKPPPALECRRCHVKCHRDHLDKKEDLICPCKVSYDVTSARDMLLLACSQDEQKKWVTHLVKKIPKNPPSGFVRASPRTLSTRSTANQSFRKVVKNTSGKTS
T13 sequence (Q76MJ5 35-926): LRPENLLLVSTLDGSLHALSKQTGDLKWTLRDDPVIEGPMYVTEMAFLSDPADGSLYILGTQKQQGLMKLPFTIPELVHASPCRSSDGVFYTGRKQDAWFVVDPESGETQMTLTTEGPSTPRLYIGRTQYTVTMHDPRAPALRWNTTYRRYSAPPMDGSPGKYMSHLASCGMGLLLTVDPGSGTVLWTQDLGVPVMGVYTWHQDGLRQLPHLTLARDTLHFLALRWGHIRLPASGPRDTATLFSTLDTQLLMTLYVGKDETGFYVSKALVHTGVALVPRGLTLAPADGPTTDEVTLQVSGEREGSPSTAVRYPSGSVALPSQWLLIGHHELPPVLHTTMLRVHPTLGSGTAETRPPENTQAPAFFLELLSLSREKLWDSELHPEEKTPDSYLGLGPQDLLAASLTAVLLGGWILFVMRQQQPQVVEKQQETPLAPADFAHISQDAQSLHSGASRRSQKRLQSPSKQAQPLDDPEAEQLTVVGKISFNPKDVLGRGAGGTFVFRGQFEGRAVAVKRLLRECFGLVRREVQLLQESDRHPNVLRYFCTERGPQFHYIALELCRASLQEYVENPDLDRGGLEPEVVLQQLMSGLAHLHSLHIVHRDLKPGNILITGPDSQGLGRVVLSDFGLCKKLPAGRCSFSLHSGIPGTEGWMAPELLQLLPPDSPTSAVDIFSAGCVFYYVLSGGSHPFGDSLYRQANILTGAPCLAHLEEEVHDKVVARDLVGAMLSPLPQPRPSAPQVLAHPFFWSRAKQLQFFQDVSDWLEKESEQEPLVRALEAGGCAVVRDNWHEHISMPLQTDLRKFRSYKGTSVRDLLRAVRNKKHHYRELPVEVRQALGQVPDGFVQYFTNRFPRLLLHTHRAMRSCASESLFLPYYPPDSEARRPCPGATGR
T11 sequence (P54762 18-984): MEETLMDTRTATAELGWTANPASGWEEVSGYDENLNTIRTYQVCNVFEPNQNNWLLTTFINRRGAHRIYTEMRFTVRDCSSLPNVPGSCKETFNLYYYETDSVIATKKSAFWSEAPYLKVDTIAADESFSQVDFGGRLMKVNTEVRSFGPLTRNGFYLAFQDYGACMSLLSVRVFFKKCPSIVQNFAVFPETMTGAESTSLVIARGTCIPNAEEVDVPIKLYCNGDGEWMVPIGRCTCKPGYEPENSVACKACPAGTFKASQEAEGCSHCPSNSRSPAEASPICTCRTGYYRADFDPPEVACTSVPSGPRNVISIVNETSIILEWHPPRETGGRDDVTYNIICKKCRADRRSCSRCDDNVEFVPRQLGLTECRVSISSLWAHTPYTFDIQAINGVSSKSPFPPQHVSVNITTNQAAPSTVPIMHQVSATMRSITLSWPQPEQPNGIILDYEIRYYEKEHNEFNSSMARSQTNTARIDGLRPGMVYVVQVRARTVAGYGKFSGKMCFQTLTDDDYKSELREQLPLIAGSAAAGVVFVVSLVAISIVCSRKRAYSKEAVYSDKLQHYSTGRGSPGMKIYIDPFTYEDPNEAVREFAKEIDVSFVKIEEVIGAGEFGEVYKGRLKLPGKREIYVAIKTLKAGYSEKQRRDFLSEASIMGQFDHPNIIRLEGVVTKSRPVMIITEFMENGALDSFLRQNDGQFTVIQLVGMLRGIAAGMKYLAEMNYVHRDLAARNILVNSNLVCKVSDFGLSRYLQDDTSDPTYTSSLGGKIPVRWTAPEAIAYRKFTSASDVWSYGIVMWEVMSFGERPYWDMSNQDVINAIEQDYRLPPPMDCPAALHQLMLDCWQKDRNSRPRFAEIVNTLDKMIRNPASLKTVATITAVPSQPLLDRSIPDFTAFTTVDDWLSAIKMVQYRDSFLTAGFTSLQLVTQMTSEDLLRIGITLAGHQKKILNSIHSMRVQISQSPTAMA
T31 sequence (Q6IQ55 whole entry): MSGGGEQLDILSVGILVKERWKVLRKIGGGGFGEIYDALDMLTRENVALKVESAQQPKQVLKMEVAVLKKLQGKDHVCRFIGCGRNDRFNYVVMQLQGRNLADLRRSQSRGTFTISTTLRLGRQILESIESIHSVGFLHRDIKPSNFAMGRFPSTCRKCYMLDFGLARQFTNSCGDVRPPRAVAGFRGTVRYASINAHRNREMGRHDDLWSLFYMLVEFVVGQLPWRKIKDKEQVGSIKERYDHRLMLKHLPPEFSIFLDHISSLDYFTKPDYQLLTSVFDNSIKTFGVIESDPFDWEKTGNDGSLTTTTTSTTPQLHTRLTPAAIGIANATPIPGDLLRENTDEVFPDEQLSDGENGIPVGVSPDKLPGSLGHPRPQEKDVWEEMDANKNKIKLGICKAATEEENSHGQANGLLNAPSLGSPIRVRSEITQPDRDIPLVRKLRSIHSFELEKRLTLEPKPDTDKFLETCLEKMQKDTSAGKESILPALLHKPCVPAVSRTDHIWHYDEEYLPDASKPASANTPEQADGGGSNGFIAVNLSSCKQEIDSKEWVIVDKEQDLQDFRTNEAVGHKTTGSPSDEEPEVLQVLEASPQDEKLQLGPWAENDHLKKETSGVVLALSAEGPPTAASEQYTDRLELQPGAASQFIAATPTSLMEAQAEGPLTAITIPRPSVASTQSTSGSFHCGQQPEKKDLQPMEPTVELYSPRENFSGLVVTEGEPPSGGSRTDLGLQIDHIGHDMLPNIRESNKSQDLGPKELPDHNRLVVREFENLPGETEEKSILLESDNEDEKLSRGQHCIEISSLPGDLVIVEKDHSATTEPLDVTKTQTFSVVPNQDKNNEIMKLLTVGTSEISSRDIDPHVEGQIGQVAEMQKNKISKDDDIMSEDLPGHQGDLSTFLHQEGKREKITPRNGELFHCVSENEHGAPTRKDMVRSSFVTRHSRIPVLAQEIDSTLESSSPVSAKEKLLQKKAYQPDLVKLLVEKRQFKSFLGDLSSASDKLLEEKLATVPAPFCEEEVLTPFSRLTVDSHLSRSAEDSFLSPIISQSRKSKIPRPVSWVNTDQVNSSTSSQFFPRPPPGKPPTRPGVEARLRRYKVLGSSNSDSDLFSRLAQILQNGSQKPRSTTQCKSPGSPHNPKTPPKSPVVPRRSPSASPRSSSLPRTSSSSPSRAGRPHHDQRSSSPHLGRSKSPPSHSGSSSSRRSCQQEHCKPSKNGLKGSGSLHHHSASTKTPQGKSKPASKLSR
T17 sequence (P49137 whole entry): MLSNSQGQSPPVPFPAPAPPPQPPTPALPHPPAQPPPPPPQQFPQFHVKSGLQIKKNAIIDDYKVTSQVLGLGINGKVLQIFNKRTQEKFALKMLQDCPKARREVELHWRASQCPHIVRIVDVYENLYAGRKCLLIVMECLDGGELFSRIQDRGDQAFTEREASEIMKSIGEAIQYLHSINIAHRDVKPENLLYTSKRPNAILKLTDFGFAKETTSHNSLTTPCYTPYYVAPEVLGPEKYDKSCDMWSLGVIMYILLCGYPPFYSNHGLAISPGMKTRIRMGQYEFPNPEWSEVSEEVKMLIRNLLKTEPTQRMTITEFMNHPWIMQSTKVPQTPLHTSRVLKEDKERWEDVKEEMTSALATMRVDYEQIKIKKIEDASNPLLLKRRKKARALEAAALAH

Cc1ccc(Nc2ncc3c(n2)N(C)C(=O)N(c2cc(C(=O)N[C@H](C(=O)N4CCC[C@H]4C(=O)NC(C)(C)C(=O)N[C@@H](CC(C)C)C(=O)N(C)C)C(C)C)ccc2C)C3)cn1 [7a, (S)-N-(1-(((S)-1-(dimethylamino)-4-methyl-1-oxopentan-2-yl)amino)-2-methyl-1-oxopropan-2-yl)-1-((4-methyl-3-(1-methyl-7-((6-methylpyridin-3-yl)amino)-2-oxo-1,4-dihydropyrimido[4,5-d]pyrimidin-3(2H)-yl)benzoyl)-L-valyl)pyrrolidine-2-carboxamide] (X1-VP[Aib]L-NMe2)
disease activity index (DAI) symptom changes (DSS-induced colitis mice): improved the symptom changes at the end of experiments | colon length (DSS-induced colitis mice; mean ± SE, n = 6): 5.47 ± 0.60 cm | inhibition at 1 µM (ALK1/ACVRL1): 17% | inhibition at 1 µM (ALK2/ACVR1): 2% | inhibition at 1 µM (Aurora A): 0% | inhibition at 1 µM (BRSK2): 8% | inhibition at 1 µM (BTK): 6% | inhibition at 1 µM (CAMK1a): 1% | inhibition at 1 µM (CDK2/cyclin O): 0% | inhibition at 1 µM (CDK3/cyclin E2): 0% | inhibition at 1 µM (CDK8/cyclin C): 2% | inhibition at 1 µM (EPHA5): 23% | inhibition at 1 µM (EPHB1): 16% | inhibition at 1 µM (ERK1): 7% | inhibition at 1 µM (ERN2/IRE2): 2% | inhibition at 1 µM (Fgr): 80% | inhibition at 1 µM (GSK3a): 10% | inhibition at 1 µM (IRAK1): 14% | inhibition at 1 µM (MAPKAPK2): 4% | inhibition at 1 µM (MNK1): 8% | inhibition at 1 µM (MSK2/RPS6KA4): 9% | inhibition at 1 µM (PIM1): 2% | inhibition at 1 µM (PLK3): 3% | inhibition at 1 µM (ROCK1): 13% | inhibition at 1 µM (SLK/STK2): 9% | inhibition at 1 µM (SRMS): 4% | inhibition at 1 µM (STK16): 0% | inhibition at 1 µM (STK32C/YANK3): 2% | inhibition at 1 µM (TEC): 2% | inhibition at 1 µM (TNK1): 2% | inhibition at 1 µM (TRKB): 5% | inhibition at 1 µM (TTBK1): 0% | inhibition at 1 µM (TTBK2): 7% | inhibition at 1 µM (VRK1): 0% | inhibition at 1 µM (WNK1): 0% | inhibition at 1 µM (WNK3): 19% | inhibition at 1 µM (p70S6K/RPS6KB1): 0%

— PMC9067983, “Identification of highly selective type II kinase inhibitors with chiral peptidomimetic tails” (Journal of Enzyme Inhibition and Medicinal Chemistry, 2022)
